Drawing on ChEMBL document CHEMBL2380283, “Design and synthesis of thiophene dihydroisoquinolines as novel BACE1 inhibitors” (Bioorg Med Chem Lett, 2013), this text covers IC50 and Papp A→B for 18 compounds.

The target of data set [1] is T1, Beta-secretase 1 (Homo sapiens, UniProt P56817). As to the kind of experiment: Inhibition of BACE1 (unknown origin) by Alpha screen assay.
The nature of data set [2]: Apparent permeability across apical to basolateral side in MDCK cells expressing MDR1 at 5 uM after 120 mins by LC/MS/MS analysis. Format: ADME, cell-based, Canis lupus familiaris. The conditions noted are these: dog.
A further data set deals with Cathepsin D (Homo sapiens, UniProt P07339). As to the kind of experiment: Inhibition of cathepsin-D (unknown origin) after 110 mins by fluorescence polarization assay. For orientation: Polarisation of emitted light reports the rotation of a fluorescent probe.
Chain of Cathepsin D (P07339 65-162 limits assumed): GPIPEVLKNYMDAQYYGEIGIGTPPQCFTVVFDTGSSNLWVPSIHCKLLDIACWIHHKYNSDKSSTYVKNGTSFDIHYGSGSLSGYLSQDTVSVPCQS
Chain of Cathepsin D (P07339 169-412 limits assumed): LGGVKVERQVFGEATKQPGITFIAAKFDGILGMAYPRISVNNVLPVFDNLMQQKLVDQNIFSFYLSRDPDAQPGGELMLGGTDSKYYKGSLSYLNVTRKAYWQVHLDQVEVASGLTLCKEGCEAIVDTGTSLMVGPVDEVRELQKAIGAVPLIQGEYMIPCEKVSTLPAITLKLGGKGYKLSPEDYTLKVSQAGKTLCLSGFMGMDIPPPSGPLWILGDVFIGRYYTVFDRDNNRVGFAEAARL
Data set [3] deals with T1, Beta-secretase 1. As to the kind of experiment: Inhibition of recombinant BACE1 (unknown origin) expressed in Escherichia coli using biotinylated APP swidesh mutant as substrate incubated for 20 mins prior to substrate addition measured after 3 hrs by fluorescence polarization assay.

pIC50: −log10 of the molar value.

T1 sequence (P56817 whole entry): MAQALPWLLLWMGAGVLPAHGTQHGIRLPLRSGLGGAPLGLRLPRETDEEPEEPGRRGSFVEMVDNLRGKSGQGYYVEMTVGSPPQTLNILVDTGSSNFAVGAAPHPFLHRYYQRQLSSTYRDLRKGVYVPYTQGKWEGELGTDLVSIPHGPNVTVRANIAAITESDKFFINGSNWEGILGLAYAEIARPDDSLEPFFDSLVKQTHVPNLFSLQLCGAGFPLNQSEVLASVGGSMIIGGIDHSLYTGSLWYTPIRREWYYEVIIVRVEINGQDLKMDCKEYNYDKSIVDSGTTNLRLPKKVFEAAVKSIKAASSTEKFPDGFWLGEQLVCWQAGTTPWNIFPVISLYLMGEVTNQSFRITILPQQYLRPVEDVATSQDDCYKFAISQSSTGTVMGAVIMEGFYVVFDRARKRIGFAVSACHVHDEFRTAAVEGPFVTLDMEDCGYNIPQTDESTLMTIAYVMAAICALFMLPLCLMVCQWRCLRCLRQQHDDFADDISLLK

`CC#Cc1cscc1CC(NC1=NC(C)(C)Cc2cc(Cl)ccc21)C(=O)O` (stereo not drawn) showed a pIC50 against Beta-secretase 1 [1] of 6.29.

Take `CC1(C)Cc2cc(Cl)ccc2C(NC(Cc2ccsc2Br)C(=O)O)=N1` (stereo not drawn): at Beta-secretase 1 [1], the pIC50 was 5.02.

With `CC1(C)Cc2cc(Cl)ccc2C(NC(Cc2sccc2Br)C(=O)O)=N1` (stereo not drawn), the pIC50 at Beta-secretase 1 [1] is 6.15.

In the case of `CC1(C)Cc2cc(Cl)ccc2C(NC(Cc2cscc2Br)C(=O)O)=N1` (stereo not drawn), the pIC50 on Beta-secretase 1 [1] was 6.51.

For `CC1(C)Cc2cc(Cl)ccc2C(NC(Cc2cscc2-c2ccncc2)C(=O)O)=N1` (stereo not drawn), the pIC50 against Beta-secretase 1 [1] is 5.73.

For the compound `CC1(C)Cc2cc(Cl)ccc2C(NC(Cc2cscc2CCC2CC2)C(=O)O)=N1` (stereo not drawn), at Beta-secretase 1 [1], the pIC50 is 6.24.

As to `CCCc1scc(-c2cn[nH]c2)c1CC(NC1=NC(C)(C)Cc2cc(Cl)ccc21)c1nccc(=O)[nH]1` (stereo not drawn), the Papp A→B at 2 h, 5 µM in data set [2] amounted to 10 ×10⁻⁶ cm/s. The values for the pIC50 at Cathepsin D, at Beta-secretase 1 [3] and at Beta-secretase 1 [1] were under 4.52, 4.40 and 6.39, respectively.

`CC1(C)Cc2cc(Cl)ccc2C(NC(Cc2cscc2-c2ncco2)C(=O)O)=N1` (stereo not drawn): at Beta-secretase 1 [1], the pIC50 is 6.09.

Turning to `CC1(C)Cc2cc(Cl)ccc2C(NC(Cc2cscc2-c2cn[nH]c2)C(=O)O)=N1` (stereo not drawn), the pIC50 at Beta-secretase 1 [1] is 6.35.

For the compound `C#Cc1cscc1CC(NC1=NC(C)(C)Cc2cc(Cl)ccc21)C(=O)O` (stereo not drawn), the pIC50 against Beta-secretase 1 [1] is 6.12.

Turning to `CC1(C)Cc2cc(Cl)ccc2C(NC(Cc2cscc2C2CC2)C(=O)O)=N1` (stereo not drawn), the pIC50 at Beta-secretase 1 [1] was 5.61.

`CCc1cscc1CC(NC1=NC(C)(C)Cc2cc(Cl)ccc21)C(=O)O` (stereo not drawn): the pIC50 on Beta-secretase 1 [1] was 6.20.

As to `CC1(C)Cc2cc(Cl)ccc2C(NC(Cc2ccsc2)C(=O)O)=N1` (stereo not drawn), the pIC50 against Beta-secretase 1 [1] was 5.54.

Regarding `Cn1cc(-c2cscc2CC(NC2=NC(C)(C)Cc3cc(Cl)ccc32)C(=O)O)cn1` (stereo not drawn), the pIC50 on Beta-secretase 1 [1] was 5.96.

The compound `CC1(C)Cc2cc(Cl)ccc2C(N[C@H](Cc2ccccc2)C(=O)O)=N1` gave a negative-log IC50 (pIC50) against Beta-secretase 1 [1] of 3.58.

In turn, `CC1(C)Cc2cc(Cl)ccc2C(NC(Cc2cscc2-c2cc[nH]n2)C(=O)O)=N1` (stereo not drawn) gave a pIC50 against Beta-secretase 1 [1] of 5.90.

Turning to `CCCc1cscc1CC(NC1=NC(C)(C)Cc2cc(Cl)ccc21)C(=O)O` (stereo not drawn), the pIC50 on Beta-secretase 1 [1] is 6.21.

For `CCCc1scc(-c2cn[nH]c2)c1CC(NC1=NC(C)(C)Cc2cc(Cl)ccc21)C(=O)O` (stereo not drawn), the results for the pIC50 on Cathepsin D, on Beta-secretase 1 [3] and at Beta-secretase 1 [1] were under 4.52, 6.40 and 8.10, respectively.

By pIC50 is commonly meant −log10 of the IC50, conventionally taken in molar units. What is called Papp A→B is the apparent permeability from the apical to the basolateral side of a cell layer.
